Like-named read-outs stand apart in the source and are kept apart here.
What was measured:
[1] = biological target: T1, BACE-1 (Homo sapiens, UniProt P56817); assay: BACE-1 inhibition (β-secretase activity detection kit); format: biochemical; conditions: read-out: Residual activity at 10 µM (%) BACE-1
T1 construct: purchased Sigma-Aldrich
Experimental: (§1) The AChE and BChE inhibitory activities were measured by continuous colorimetric determination method, in the presence of 0.5 mM acetylthiocholine iodide (ACTI) and butyrylthiocholine iodide […]
(§2) POP, K LAB, Daejeon, Korea). After adding the substrate, 0.5 mM 5,5-dithiobis (2-nitrobenzoic acid) (DTNB) was added as the color development solution. The BACE-1 inhibitory activity was evaluated by β-secretase (BACE1) activity detection kit (Sigma-Aldrich, St. Louis, Mo, USA) using a fluorescence spectrometer (FS-2, Scinco, Seoul, Korea). […]

[2] = biological target: AChE (Electrophorus electricus, UniProt O42275); assay: AChE inhibition (colorimetric, acetylthiocholine iodide); format: biochemical; conditions: read-out: Residual activity at 10 µM (%) AChE
Experimental: as §1
POP, K LAB, Daejeon, Korea). After adding the substrate, 0.5 mM 5,5-dithiobis (2-nitrobenzoic acid) (DTNB) was added as the color development solution. The BACE-1 inhibitory activity was evaluated by β-secretase (BACE1) activity detection kit (Sigma-Aldrich, St. Louis, Mo, USA) using a fluorescence spectrometer (FS-2, Scinco, Seoul, Korea).
64. […] A new and rapid colorimetric determination of acetylcholinesterase activity. Biochem. Pharmacol. 7, 88-95. […]

[3] = biological target: BChE (Equus caballus, UniProt P81908); assay: biochemical; conditions: read-out: Residual activity at 10 µM (%) BChE
Experimental: as §1, §2

[4] = biological target: T2, MAO-B (Homo sapiens, UniProt P27338); assay: MAO-B inhibition assay (recombinant enzyme, benzylamine substrate); format: biochemical; conditions: for SI (selectivity index for MAO-B as compared to MAO-A): IC50 MAO-A divided by IC50 MAO-B; for remaining activity at 10 µM: read-out: Residual Activity at 10 µM (%) MAO-B
T2 construct: purchased Sigma-Aldrich
T2 sequence (P27338 1-520): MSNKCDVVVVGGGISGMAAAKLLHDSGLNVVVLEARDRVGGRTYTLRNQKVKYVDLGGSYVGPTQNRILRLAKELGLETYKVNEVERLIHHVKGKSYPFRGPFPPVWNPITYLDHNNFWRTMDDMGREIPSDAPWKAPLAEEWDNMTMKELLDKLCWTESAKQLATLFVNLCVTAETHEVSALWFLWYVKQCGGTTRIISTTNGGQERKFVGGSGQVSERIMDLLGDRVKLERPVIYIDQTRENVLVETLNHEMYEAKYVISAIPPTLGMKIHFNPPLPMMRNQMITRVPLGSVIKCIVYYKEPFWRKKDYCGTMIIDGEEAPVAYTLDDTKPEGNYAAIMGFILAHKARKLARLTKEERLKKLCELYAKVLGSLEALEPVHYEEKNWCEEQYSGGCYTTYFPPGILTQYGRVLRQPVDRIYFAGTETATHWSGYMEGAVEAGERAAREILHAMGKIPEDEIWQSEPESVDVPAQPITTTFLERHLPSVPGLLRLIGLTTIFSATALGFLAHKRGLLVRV
Experimental: (§3) Recombinant MAO-A and MAO-B were used to test the MAO inhibitory activity using the substrates kynuramine and benzylamine (0.06 mM and 0.3 mM, respectively). […] Chemicals were from Sigma-Aldrich.
(§4) MAO-A At 10 µM, compounds’ inhibitory effects on MAOs were initially recorded. […] The SI values of MAO-B were calculated by dividing the IC50 values for MAO-A and those for MAO-B. The MAO-B was used to study the kinetics of substances DM2 or DM18 at five different substrate concentrations. By using the LB plots and their secondary plots at three different inhibitor doses, the inhibition patterns were examined.

[5] = biological target: T3, MAO-A (Homo sapiens, UniProt P21397); assay: MAO-A inhibition assay (recombinant enzyme, kynuramine substrate); format: biochemical; conditions: for remaining activity at 10 µM: read-out: Residual Activity at 10 µM (%) MAO-A
T3 construct: purchased Sigma-Aldrich
T3 sequence (P21397 1-527): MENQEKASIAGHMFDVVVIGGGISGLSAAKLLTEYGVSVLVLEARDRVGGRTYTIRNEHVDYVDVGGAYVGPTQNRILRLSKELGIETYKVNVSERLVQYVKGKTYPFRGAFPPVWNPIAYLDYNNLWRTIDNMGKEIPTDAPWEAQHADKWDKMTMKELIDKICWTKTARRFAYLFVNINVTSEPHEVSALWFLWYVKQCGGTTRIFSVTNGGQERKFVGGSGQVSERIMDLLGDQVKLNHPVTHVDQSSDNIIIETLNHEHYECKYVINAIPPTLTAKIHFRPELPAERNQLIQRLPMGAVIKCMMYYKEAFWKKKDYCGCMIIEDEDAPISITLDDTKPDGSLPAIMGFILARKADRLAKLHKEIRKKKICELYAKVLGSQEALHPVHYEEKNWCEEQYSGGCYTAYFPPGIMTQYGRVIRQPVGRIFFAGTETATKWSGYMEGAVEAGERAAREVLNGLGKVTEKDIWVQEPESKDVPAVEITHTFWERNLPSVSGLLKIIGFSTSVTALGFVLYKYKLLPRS
Experimental: as §3, §4

[6] = 10 µM compound, recombinant MAO-B, benzylamine 0.3 mM
[7] = recombinant MAO-B, benzylamine 0.3 mM, read-out: IC50 (µM) MAO-B
[8] = 10 µM compound, recombinant MAO-A, kynuramine 0.06 mM
[9] = recombinant MAO-A, kynuramine 0.06 mM, read-out: IC50 (µM) MAO-A

Sequence of AChE (O42275 24-633): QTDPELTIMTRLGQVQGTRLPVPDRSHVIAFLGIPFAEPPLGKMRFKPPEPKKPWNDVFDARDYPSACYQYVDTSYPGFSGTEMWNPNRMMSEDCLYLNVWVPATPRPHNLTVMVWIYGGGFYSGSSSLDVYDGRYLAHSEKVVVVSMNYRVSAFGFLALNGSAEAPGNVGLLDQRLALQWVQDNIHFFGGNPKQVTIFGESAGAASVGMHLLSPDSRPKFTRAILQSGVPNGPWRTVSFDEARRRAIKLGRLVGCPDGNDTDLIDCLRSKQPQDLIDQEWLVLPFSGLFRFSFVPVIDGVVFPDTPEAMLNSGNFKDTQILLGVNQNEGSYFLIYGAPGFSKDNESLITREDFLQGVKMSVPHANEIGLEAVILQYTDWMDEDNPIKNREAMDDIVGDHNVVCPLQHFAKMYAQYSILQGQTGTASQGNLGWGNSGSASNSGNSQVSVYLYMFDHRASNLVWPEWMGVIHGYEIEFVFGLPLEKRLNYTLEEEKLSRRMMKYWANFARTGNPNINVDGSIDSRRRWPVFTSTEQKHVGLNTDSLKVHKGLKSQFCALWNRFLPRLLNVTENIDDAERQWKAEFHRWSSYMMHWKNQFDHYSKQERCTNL
T1 sequence (P56817 46-501): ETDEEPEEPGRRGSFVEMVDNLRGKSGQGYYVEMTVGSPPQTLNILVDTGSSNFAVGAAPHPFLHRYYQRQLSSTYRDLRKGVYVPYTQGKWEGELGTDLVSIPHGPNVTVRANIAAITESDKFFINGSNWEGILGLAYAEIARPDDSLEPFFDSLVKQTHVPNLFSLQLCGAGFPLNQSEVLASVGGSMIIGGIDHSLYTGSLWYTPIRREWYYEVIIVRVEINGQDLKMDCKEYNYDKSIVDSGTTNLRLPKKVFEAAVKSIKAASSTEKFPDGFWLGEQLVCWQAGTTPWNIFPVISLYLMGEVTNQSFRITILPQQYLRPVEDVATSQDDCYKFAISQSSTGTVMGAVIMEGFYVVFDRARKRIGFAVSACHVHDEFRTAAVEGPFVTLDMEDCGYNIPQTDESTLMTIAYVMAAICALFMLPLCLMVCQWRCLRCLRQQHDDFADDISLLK
Sequence of BChE (P81908 whole entry): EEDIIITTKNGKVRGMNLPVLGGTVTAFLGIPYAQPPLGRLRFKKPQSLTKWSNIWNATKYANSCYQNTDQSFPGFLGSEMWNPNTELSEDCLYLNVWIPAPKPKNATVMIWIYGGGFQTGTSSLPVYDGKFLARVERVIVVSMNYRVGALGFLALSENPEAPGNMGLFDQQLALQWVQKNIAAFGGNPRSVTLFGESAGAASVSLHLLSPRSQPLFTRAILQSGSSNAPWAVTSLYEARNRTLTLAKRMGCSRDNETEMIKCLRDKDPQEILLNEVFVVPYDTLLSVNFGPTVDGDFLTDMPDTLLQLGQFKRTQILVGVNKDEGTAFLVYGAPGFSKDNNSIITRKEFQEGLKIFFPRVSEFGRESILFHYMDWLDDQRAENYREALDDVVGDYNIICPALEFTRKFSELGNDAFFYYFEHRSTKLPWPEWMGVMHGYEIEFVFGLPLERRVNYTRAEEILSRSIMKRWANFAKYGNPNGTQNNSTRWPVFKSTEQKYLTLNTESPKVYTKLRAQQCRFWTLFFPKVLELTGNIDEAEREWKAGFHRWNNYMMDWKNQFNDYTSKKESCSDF

For `COc1ccc(C(=O)/C=C/c2ccccc2)c(OC)c1` [DM1], the remaining activity at 10 µM [1] was 92.67 ± 0.26%, the remaining activity at 10 µM [2] was 75.6 ± 2.35% and the remaining activity at 10 µM [3] was 93.21 ± 0.3%. The IC50 [4] was 0.927 ± 0.021 µM, the “SI (selectivity index for MAO-B as compared to MAO-A)” value [4] was 16.61 and the remaining activity at 10 µM [4] was 17.6 ± 0.74%. The IC50 [5] was 15.4 ± 1.97 µM and the remaining activity at 10 µM [5] was 57.2 ± 1.91%.
`COc1ccc(C(=O)/C=C/c2cccc(Cl)c2)c(OC)c1` [DM3] gave a remaining activity at 10 µM ([1]; 10 µM compound) of 99.67 ± 0.53%, a remaining activity at 10 µM [2] of 81.5 ± 4.09% and a remaining activity at 10 µM [3] of 69.87 ± 0.19%. For the same compound, the remaining activity at 10 µM [4, 6] was 7.89 ± 0.63%, the “SI (selectivity index for MAO-B as compared to MAO-A)” value [4] was 44.08 and the IC50 [4, 7] was 0.13 ± 0.023 µM. It also gave a remaining activity at 10 µM [5, 8] of 43.3 ± 1.2% and an IC50 [5, 9] of 5.73 ± 0.142 µM.
`COc1ccc(C(=O)/C=C/c2ccc(Cl)cc2)c(OC)c1` [DM4] showed a remaining activity at 10 µM [1] of 90.82 ± 0.09%, a remaining activity at 10 µM [2] of 74.2 ± 2.43% and a remaining activity at 10 µM [3] of 80.1 ± 1.59%. The IC50 [4] was 0.589 ± 0.055 µM, the “SI (selectivity index for MAO-B as compared to MAO-A)” value [4] was 7.61 and the remaining activity at 10 µM [4] was 18.6 ± 1.04%. For the same compound, the IC50 [5] was 4.48 ± 0.152 µM and the remaining activity at 10 µM [5] was 38.8 ± 3.4%.
For `COc1ccc(C(=O)/C=C/c2ccccc2Br)c(OC)c1` [DM5], the remaining activity at 10 µM ([1]; 10 µM compound) was 87.8 ± 0.29%, the remaining activity at 10 µM [2] was 71.2 ± 6.12% and the remaining activity at 10 µM [3] was 60.54 ± 0.03%. The remaining activity at 10 µM [4, 6] was 10.6 ± 1.88%, the “SI (selectivity index for MAO-B as compared to MAO-A)” value [4] was 77.02 and the IC50 [4, 7] was 0.161 ± 0.02 µM. It also gave a remaining activity at 10 µM [5, 8] of 54.5 ± 4.32% and an IC50 [5, 9] of 12.4 ± 0.872 µM.
For `COc1ccc(C(=O)/C=C/c2cccc(Br)c2)c(OC)c1` [DM6], the remaining activity at 10 µM ([1]; 10 µM compound) was 88.53 ± 0.22%, the remaining activity at 10 µM [2] was 73 ± 0.75% and the remaining activity at 10 µM [3] was 79.7 ± 1.1%. The remaining activity at 10 µM [4, 6] was 5.5 ± 0.64%, the “SI (selectivity index for MAO-B as compared to MAO-A)” value [4] was 86.49 and the IC50 [4, 7] was 0.148 ± 0.087 µM. It also gave a remaining activity at 10 µM [5, 8] of 62.7 ± 1.32% and an IC50 [5, 9] of 12.8 ± 1.57 µM.
In the case of `COc1ccc(C(=O)/C=C/c2ccc(Br)cc2)c(OC)c1` [DM7], the remaining activity at 10 µM ([1]; 10 µM compound) is reported as 97.29 ± 0.34%, the remaining activity at 10 µM [2] is reported as 87.2 ± 1.19% and the remaining activity at 10 µM [3] is reported as 98.2 ± 1.01%. The remaining activity at 10 µM [4, 6] was 15.6 ± 1.78%, the “SI (selectivity index for MAO-B as compared to MAO-A)” value [4] was 5.60 and the IC50 [4, 7] was 0.844 ± 0.023 µM. The remaining activity at 10 µM [5, 8] was 40.3 ± 1.05% and the IC50 [5, 9] was 4.733 ± 0.005 µM.
`COc1ccc(C(=O)/C=C/c2ccccc2F)c(OC)c1` [DM8] gave a remaining activity at 10 µM ([1]; 10 µM compound) of 91.01 ± 0.06%, a remaining activity at 10 µM [2] of 82.7 ± 10.4% and a remaining activity at 10 µM [3] of 85.42 ± 0.67%. For the same compound, the remaining activity at 10 µM [4, 6] was 11.1 ± 1.44%, the “SI (selectivity index for MAO-B as compared to MAO-A)” value [4] was 11.90 and the IC50 [4, 7] was 1.13 ± 0.033 µM. For the same compound, the remaining activity at 10 µM [5, 8] was 56.4 ± 7.34% and the IC50 [5, 9] was 13.4 ± 0.82 µM.
For `COc1ccc(C(=O)/C=C/c2cccc(F)c2)c(OC)c1` [DM9], the remaining activity at 10 µM ([1]; 10 µM compound) was 88.2 ± 0.28%, the remaining activity at 10 µM [2] was 71.9 ± 3.06% and the remaining activity at 10 µM [3] was 72.5 ± 3.69%. For the same compound, the remaining activity at 10 µM [4, 6] was 10.8 ± 0.23%, the “SI (selectivity index for MAO-B as compared to MAO-A)” value [4] was 45.93 and the IC50 [4, 7] was 0.246 ± 0.074 µM. It also gave a remaining activity at 10 µM [5, 8] of 50.6 ± 0.82% and an IC50 [5, 9] of 11.3 ± 1.06 µM.
Compound `COc1ccc(C(=O)/C=C/c2ccc(F)cc2)c(OC)c1` [DM10] has a remaining activity at 10 µM ([1]; 10 µM compound) of 87.13 ± 0.42%, a remaining activity at 10 µM [2] of 64.3 ± 6.85% and a remaining activity at 10 µM [3] of 92.84 ± 0.51%. The remaining activity at 10 µM [4, 6] was 23.2 ± 0.37%, the “SI (selectivity index for MAO-B as compared to MAO-A)” value [4] was 8.14 and the IC50 [4, 7] was 1.96 ± 0.065 µM. For the same compound, the remaining activity at 10 µM [5, 8] was 53.9 ± 7.17% and the IC50 [5, 9] was 16 ± 1.47 µM.

— article PMC9503132, “Development of Halogenated-Chalcones Bearing with Dimethoxy Phenyl Head as Monoamine Oxidase-B Inhibitors” (Pharmaceuticals, 2022)
